Measurements published in PubChem BioAssay (NCI).
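Abbreviation: GI50, concentration required for 50% inhibition of growth. TGI: concentration producing complete growth inhibition.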

Columns and labels:
Assay in all cases: inhibition of tumour cell growth, NCI panel, 384-well format
[1] = system: 786-0 renal
[2] = system: A498 renal
[3] = system: A549 NSCLC
[4] = system: ACHN renal
[5] = system: CCRF-CEM leukemia
[6] = system: COLO 205 colon
[7] = system: HCT-116 colon
[8] = system: HCT-15 colon
[9] = system: HL-60(TB) leukemia
[10] = system: HOP-62 NSCLC
[11] = system: HOP-92 NSCLC
[12] = system: K-562 leukemia
[13] = system: M14 melanoma
[14] = system: MCF7 breast
[15] = system: MDA-MB-435 melanoma
[16] = system: MDA-MB-468 breast
[17] = system: MOLT-4 leukemia
[18] = system: NCI-H226 lung
[19] = system: NCI-H522 lung
[20] = system: NCI/ADR-RES ovarian
[21] = system: OVCAR-4 ovarian
[22] = system: OVCAR-8 ovarian
[23] = system: PC-3 prostate
[24] = system: RPMI-8226 leukemia
[25] = system: RXF 393 renal
[26] = system: SK-MEL-2 melanoma
[27] = system: SK-MEL-5 melanoma
[28] = system: SN12C renal
[29] = system: SR leukemia
[30] = system: TK-10 renal
[31] = system: UACC-62 melanoma
[32] = system: UO-31 renal
[33] = system: BT-549 breast
[34] = system: CAKI-1 renal
[35] = system: DU-145 prostate
[36] = system: EKVX NSCLC
[37] = system: HCC-2998 colon
[38] = system: HS 578T breast
[39] = system: HT29 colon
[40] = system: IGROV1 ovarian
[41] = system: KM12 colon
[42] = system: LOX IMVI melanoma
[43] = system: MALME-3M melanoma
[44] = system: MDA-MB-231 breast
[45] = system: NCI-H23 lung
[46] = system: NCI-H322M lung
[47] = system: NCI-H460 NSCLC
[48] = system: OVCAR-3 ovarian
[49] = system: SF-268 CNS
[50] = system: SF-295 CNS
[51] = system: SF-539 CNS
[52] = system: SK-MEL-28 melanoma
[53] = system: SK-OV-3 ovarian
[54] = system: SNB-19 CNS
[55] = system: SNB-75 CNS
[56] = system: SW-620 colon
[57] = system: T-47D breast
[58] = system: U251 glioblastoma
[59] = system: UACC-257 melanoma

Structure (SMILES): Cc1sc(C(=O)c2cncnc2N[C@@H]2C[C@H](COS(N)(=O)=O)[C@@H](O)C2)cc1[C@@H]1NCCc2ccc(Cl)cc21
- GI50 [1]: 0.453 µM
- TGI [1]: 20.5 µM
- GI50 [2]: 0.561 µM
- TGI [2]: 18.7 µM
- GI50 [3]: 0.0744 µM
- TGI [3]: 17.2 µM
- GI50 [4]: 12.5 µM
- TGI [4]: 25.3 µM
- GI50 [5]: < 0.01 µM
- TGI [5]: 0.0148 µM
- GI50 [6]: 0.0132 µM
- TGI [6]: 0.0756 µM
- GI50 [7]: 0.0282 µM
- TGI [7]: 17.4 µM
- GI50 [8]: 2.5 µM
- TGI [8]: 14.2 µM
- GI50 [9]: 0.0111 µM
- TGI [9]: 0.0233 µM
- GI50 [10]: 0.321 µM
- TGI [10]: 19.3 µM
- GI50 [11]: 0.0188 µM
- TGI [11]: 10.1 µM
- GI50 [12]: 0.0548 µM
- TGI [12]: 13.1 µM
- GI50 [13]: 0.0322 µM
- TGI [13]: 0.214 µM
- GI50 [14]: < 0.01 µM
- TGI [14]: 15.3 µM
- GI50 [15]: < 0.01 µM
- TGI [15]: 0.0183 µM
- GI50 [16]: < 0.01 µM
- TGI [16]: 0.0172 µM
- GI50 [17]: < 0.01 µM
- TGI [17]: 0.0186 µM
- GI50 [18]: 0.16 µM
- TGI [18]: 16.3 µM
- GI50 [19]: < 0.01 µM
- TGI [19]: 0.0151 µM
- GI50 [20]: 32.7 µM
- TGI [20]: > 100 µM
- GI50 [21]: 0.029 µM
- TGI [21]: 0.081 µM
- GI50 [22]: 0.186 µM
- TGI [22]: 17.5 µM
- GI50 [23]: 0.0352 µM
- TGI [23]: 19.2 µM
- GI50 [24]: < 0.01 µM
- GI50 [25]: 0.0104 µM
- TGI [25]: 0.0578 µM
- GI50 [26]: < 0.01 µM
- TGI [26]: 0.0123 µM
- GI50 [27]: 0.0565 µM
- TGI [27]: 0.239 µM
- GI50 [28]: 0.133 µM
- TGI [28]: 21.4 µM
- GI50 [29]: < 0.01 µM
- GI50 [30]: 14.5 µM
- TGI [30]: 27.7 µM
- GI50 [31]: 0.0198 µM
- TGI [31]: 17.7 µM
- GI50 [32]: 10.6 µM
- TGI [32]: 22.6 µM

Structure (SMILES): C[C@@H](Nc1cc(F)cc(F)c1)c1cc(C(=O)N(C)C)cc2c(=O)cc(N3CCOCC3)oc12
- GI50 [1]: 1.24 µM
- TGI [1]: > 100 µM
- GI50 [2]: 0.0447 µM
- TGI [2]: 1.31 µM
- GI50 [3]: 7.85 µM
- TGI [3]: > 100 µM
- GI50 [4]: 6.68 µM
- TGI [4]: > 100 µM
- GI50 [33]: 0.341 µM
- TGI [33]: > 100 µM
- GI50 [34]: 0.25 µM
- TGI [34]: > 100 µM
- GI50 [5]: 13.4 µM
- TGI [5]: 57.9 µM
- GI50 [6]: 13.4 µM
- TGI [6]: > 100 µM
- GI50 [35]: 17.4 µM
- TGI [35]: > 100 µM
- GI50 [36]: 2.4 µM
- TGI [36]: > 100 µM
- GI50 [37]: 5.66 µM
- TGI [37]: 55.6 µM
- GI50 [7]: 10.5 µM
- TGI [7]: > 100 µM
- GI50 [8]: 25.5 µM
- TGI [8]: > 100 µM
- GI50 [9]: 0.599 µM
- TGI [9]: 9.14 µM
- GI50 [10]: 28.8 µM
- TGI [10]: > 100 µM
- GI50 [11]: 0.627 µM
- TGI [11]: > 100 µM
- GI50 [38]: 0.902 µM
- TGI [38]: 32.8 µM
- GI50 [39]: 6.45 µM
- TGI [39]: > 100 µM
- GI50 [40]: 0.392 µM
- TGI [40]: 3.29 µM
- GI50 [12]: 55.1 µM
- TGI [12]: > 100 µM
- GI50 [41]: 23.5 µM
- TGI [41]: > 100 µM
- GI50 [42]: 17 µM
- TGI [42]: > 100 µM
- GI50 [13]: 20.4 µM
- TGI [13]: > 100 µM
- GI50 [43]: 1.13 µM
- TGI [43]: 63.1 µM
- GI50 [14]: 0.666 µM
- TGI [14]: > 100 µM
- GI50 [44]: 49.1 µM
- TGI [44]: > 100 µM
- GI50 [15]: 87 µM
- TGI [15]: > 100 µM
- GI50 [16]: 1.59 µM
- TGI [16]: 12.7 µM
- GI50 [17]: 1.11 µM
- TGI [17]: 10.8 µM
- GI50 [18]: 67.6 µM
- TGI [18]: > 100 µM
- GI50 [45]: 31.8 µM
- TGI [45]: > 100 µM
- GI50 [46]: 8.36 µM
- TGI [46]: 78 µM
- GI50 [47]: 4.5 µM
- TGI [47]: > 100 µM
- GI50 [19]: 23.7 µM
- TGI [19]: > 100 µM
- GI50 [20]: > 100 µM
- TGI [20]: > 100 µM
- GI50 [48]: 0.465 µM
- TGI [48]: 18 µM
- GI50 [21]: > 100 µM
- TGI [21]: > 100 µM
- GI50 [22]: 10.3 µM
- TGI [22]: > 100 µM
- GI50 [23]: 0.261 µM
- TGI [23]: > 100 µM
- GI50 [24]: 16.6 µM
- TGI [24]: 51.1 µM
- GI50 [25]: 0.182 µM
- TGI [25]: 8.24 µM
- GI50 [49]: 13.1 µM
- TGI [49]: > 100 µM
- GI50 [50]: 0.611 µM
- TGI [50]: 16 µM
- GI50 [51]: 12 µM
- TGI [51]: > 100 µM
- GI50 [52]: 1.39 µM
- TGI [52]: > 100 µM
- GI50 [27]: 11.3 µM
- TGI [27]: > 100 µM
- GI50 [53]: 3.48 µM
- TGI [53]: > 100 µM
- GI50 [28]: 0.215 µM
- TGI [28]: > 100 µM
- GI50 [54]: 68.6 µM
- TGI [54]: > 100 µM
- GI50 [55]: 0.762 µM
- TGI [55]: > 100 µM
- GI50 [29]: 0.385 µM
- TGI [29]: 16.6 µM
- GI50 [56]: 61.4 µM
- TGI [56]: > 100 µM
- GI50 [57]: 0.591 µM
- TGI [57]: 9.05 µM
- GI50 [30]: 3.57 µM
- TGI [30]: > 100 µM
- GI50 [58]: 39.2 µM
- TGI [58]: > 100 µM
- GI50 [59]: 17.2 µM
- TGI [59]: > 100 µM
- GI50 [31]: 0.981 µM
- TGI [31]: 24.7 µM
- GI50 [32]: 6.38 µM
- TGI [32]: > 100 µM
